Patent US11560371B2, “Cereblon binding compounds, compositions thereof, and methods of treatment therewith” (Celgene Corporation, priority 2020, dated 2023)
Counter-ions that a name gives are not always drawn.

Target: T1, AR (Homo sapiens, UniProt P10275)
T1 construct: endogenous in cells; host or cells: VCaP cells
T1 sequence (P10275 1-920): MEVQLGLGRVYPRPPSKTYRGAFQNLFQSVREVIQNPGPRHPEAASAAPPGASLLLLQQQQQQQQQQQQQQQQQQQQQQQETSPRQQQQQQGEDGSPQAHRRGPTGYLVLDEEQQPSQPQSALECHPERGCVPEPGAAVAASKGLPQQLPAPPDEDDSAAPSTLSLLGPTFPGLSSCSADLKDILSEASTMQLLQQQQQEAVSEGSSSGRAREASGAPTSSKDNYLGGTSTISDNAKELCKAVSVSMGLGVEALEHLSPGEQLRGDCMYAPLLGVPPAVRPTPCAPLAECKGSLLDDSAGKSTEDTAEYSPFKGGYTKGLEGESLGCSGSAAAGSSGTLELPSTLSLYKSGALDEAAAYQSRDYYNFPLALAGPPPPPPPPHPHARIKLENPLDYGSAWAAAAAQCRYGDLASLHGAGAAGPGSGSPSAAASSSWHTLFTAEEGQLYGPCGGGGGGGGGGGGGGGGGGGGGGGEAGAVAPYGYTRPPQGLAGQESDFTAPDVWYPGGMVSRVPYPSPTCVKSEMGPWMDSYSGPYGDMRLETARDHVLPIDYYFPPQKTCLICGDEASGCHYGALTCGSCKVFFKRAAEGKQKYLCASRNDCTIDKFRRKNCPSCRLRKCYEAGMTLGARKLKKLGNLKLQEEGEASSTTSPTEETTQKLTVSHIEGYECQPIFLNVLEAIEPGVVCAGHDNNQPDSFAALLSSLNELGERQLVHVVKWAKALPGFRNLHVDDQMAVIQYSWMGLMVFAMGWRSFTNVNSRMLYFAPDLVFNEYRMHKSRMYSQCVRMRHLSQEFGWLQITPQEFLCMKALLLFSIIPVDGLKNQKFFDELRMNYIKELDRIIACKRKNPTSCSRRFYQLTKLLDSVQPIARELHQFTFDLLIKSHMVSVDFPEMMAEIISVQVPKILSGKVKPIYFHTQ
Test: VCAP AR Degradation Assay
Type: cell-based
Settings: VCaP cells, 24 h, AR ELISA; for DC50: concentration of compound when AR level = 50% of DMSO control (50% AR degradation); for Y: lowest measured AR level normalized to DMSO control (AR degradation efficiency)
Description: VCAP AR Degradation Assay. Test compounds were pre-dispensed into a Corning CellBind 96-well clear bottom plate (Cat #3300) using an acoustic dispenser to make a 10-point concentration series at 1:3 dilution for each compound. The final top concentration of each compound was 5 μM. DMSO at a final concentration of 0.1% was used as a control. VCaP cells cultured in DMEM with 8% fetal bovine serum (FBS) were seeded at 50K cells per well in a 200 μL volume into the compound plate and incubated at 37° C. in a CO2 incubator for 24 h. The medium was carefully removed from the cells and the plate was placed on ice. […] ice-cold 1× cell lysis buffer from Cell Signaling Technologies (Cat #9803) was added to each well of the cells and the plate was incubated at 4° C. on a shaker for 1 h. Fifteen μL of cell lysate was used for AR ELISA detection using a PathScan Total Sandwich AR ELISA kit (Cell Signaling Technology, Cat #12580). AR levels in compound-treated wells were normalized to that of DMSO control and expressed as percent of control (PoC) (y). A Four Parameter Logistic Model (Sigmoidal Dose-Response Model) was used to determine the compound's DC50, and EC50, using the following equation: y=(A+((B−A)/(1+((C/x)^D)))) • A=YMin (lowest AR level normalized to DMSO control in response to compound treatment, as determined by curve fit) • B=YMax (maximum AR level as determined by curve fit) • C=EC50 • D=Hill Slope • x=compound concentration • EC50=the concentration of compound when y=[…] • DC50=the concentration of the compound when y=50% of DMSO control (50% AR degradation) • y=AR protein level normalized to DMSO control
The lowest measured AR level normalized to DMSO control in response to compound treatment, termed Y value, was used to characterize the compound-mediated AR degradation efficiency.

SMILES	DC50 [nM]	Y
C[C@@H]1CN(CCO[C@H]2CC[C@H](N3C(=S)N(c4ccc(C#N)c(C(F)(F)F)c4)C(=O)C3(C)C)CC2)C[C@H](C)N1CC(=O)Nc1cccc2c(N3CCC(=O)NC3=O)nn(C)c12 [Cmpd 1, 2-((2S,6R)-4-(2-((trans-4-(3-(4-Cyano-3-(trifluoromethyl)phenyl)-5,5-dimethyl-4-oxo-2-thioxoimidazolidin-1-yl)cyclohexyl)oxy)ethyl)-2,6-dimethylpiperazin-1-yl)-N-(3-(2,4-dioxotetrahydropyrimidin-1(2H)-yl)-1-methyl-1H-indazol-7-yl)acetamide hydrochloride]	10 to 100	*** (30%<Y<60%)
C[C@@H]1CN(CCC[C@H]2CC[C@H](N3C(=S)N(c4ccc(C#N)c(C(F)(F)F)c4)C(=O)C3(C)C)CC2)C[C@H](C)N1CC(=O)Nc1cccc2c(N3CCC(=O)NC3=O)nn(C)c12 [Cmpd 2, 2-((2R,6S)-4-(3-(trans-4-(3-(4-Cyano-3-(trifluoromethyl)phenyl)-5,5-dimethyl-4-oxo-2-thioxoimidazolidin-1-yl)cyclohexyl)propyl)-2,6-dimethylpiperazin-1-yl)-N-(3-(2,4-dioxotetrahydropyrimidin-1(2H)-yl)-1-methyl-1H-indazol-7-yl)acetamide hydrochloride]	2 to 10	** (20%<Y≤%)
C[C@@H]1CN(CCO[C@H]2CC[C@H](N3C(=S)N(c4ccc(C#N)c(Cl)c4)C(=O)C3(C)C)CC2)C[C@H](C)N1CC(=O)Nc1cccc2c(N3CCC(=O)NC3=O)nn(C)c12 [Cmpd 3, 2-((2R,6S)-4-(2-((trans-4-(3-(3-Chloro-4-cyanophenyl)-5,5-dimethyl-4-oxo-2-thioxoimidazolidin-1-yl)cyclohexyl)oxy)ethyl)-2,6-dimethylpiperazin-1-yl)-N-(3-(2,4-dioxotetrahydropyrimidin-1(2H)-yl)-1-methyl-1H-indazol-7-yl)acetamide hydrochloride]	2 to 10	*** (30%<Y<60%)
C[C@@H]1CN(CCO[C@H]2CC[C@H](N3C(=S)N(c4cnc(C#N)c(C(F)(F)F)c4)C(=O)C3(C)C)CC2)C[C@H](C)N1CC(=O)Nc1cccc2c(N3CCC(=O)NC3=O)nn(C)c12 [Cmpd 4, 2-((2R,6S)-4-(2-((trans-4-(3-(6-Cyano-5-(trifluoromethyl)pyridin-3-yl)-5,5-dimethyl-4-oxo-2-thioxoimidazolidin-1-yl)cyclohexyl)oxy)ethyl)-2,6-dimethylpiperazin-1-yl)-N-(3-(2,4-dioxotetrahydropyrimidin-1(2H)-yl)-1-methyl-1H-indazol-7-yl)acetamide hydrochloride]	2 to 10	** (20%<Y≤%)
C[C@@H]1CN(CCO[C@H]2CC[C@H](N3C(=S)N(c4ccc(C#N)c(C(F)(F)F)c4)C(=O)C3(C)C)CC2)C[C@H](C)N1CCC(=O)Nc1cccc2c(N3CCC(=O)NC3=O)nn(C)c12 [Cmpd 5, 3-((2R,6S)-4-(2-((trans-4-(3-(4-Cyano-3-(trifluoromethyl)phenyl)-5,5-dimethyl-4-oxo-2-thioxoimidazolidin-1-yl)cyclohexyl)oxy)ethyl)-2,6-dimethylpiperazin-1-yl)-N-(3-(2,4-dioxotetrahydropyrimidin-1(2H)-yl)-1-methyl-1H-indazol-7-yl)propanamide]	2 to 10	*** (30%<Y<60%)
C[C@@H]1CN(CCO[C@H]2CC[C@H](N3C(=S)N(c4cnc(C#N)c(Cl)c4)C(=O)C3(C)C)CC2)C[C@H](C)N1CC(=O)Nc1cccc2c(N3CCC(=O)NC3=O)nn(C)c12 [Cmpd 6, 2-((2R,6S)-4-(2-((trans-4-(3-(5-Chloro-6-cyanopyridin-3-yl)-5,5-dimethyl-4-oxo-2-thioxoimidazolidin-1-yl)cyclohexyl)oxy)ethyl)-2,6-dimethylpiperazin-1-yl)-N-(3-(2,4-dioxotetrahydropyrimidin-1(2H)-yl)-1-methyl-1H-indazol-7-yl)acetamide hydrochloride]	≤ 2	* (0<Y≤20%)
C[C@@H]1CN(CCCO[C@H]2CC[C@H](N3C(=S)N(c4cnc(C#N)c(C(F)(F)F)c4)C(=O)C3(C)C)CC2)C[C@H](C)N1CC(=O)Nc1cccc2c(N3CCC(=O)NC3=O)nn(C)c12 [Cmpd 7, 2-((2R,6S)-4-(3-((trans-4-(3-(6-Cyano-5-(trifluoromethyl)pyridin-3-yl)-5,5-dimethyl-4-oxo-2-thioxoimidazolidin-1-yl)cyclohexyl)oxy)propyl)-2,6-dimethylpiperazin-1-yl)-N-(3-(2,4-dioxotetrahydropyrimidin-1(2H)-yl)-1-methyl-1H-indazol-7-yl)acetamide hydrochloride]	≤ 2	** (20%<Y≤%)
C[C@@H]1CN(CCCO[C@H]2CC[C@H](N3C(=S)N(c4ccc(C#N)c(C(F)(F)F)c4)C(=O)C3(C)C)CC2)C[C@H](C)N1CC(=O)Nc1cccc2c(N3CCC(=O)NC3=O)nn(C)c12 [Cmpd 8, 2-((2R,6S)-4-(3-((trans-4-(3-(4-Cyano-3-(trifluoromethyl)phenyl)-5,5-dimethyl-4-oxo-2-thioxoimidazolidin-1-yl)cyclohexyl)oxy)propyl)-2,6-dimethylpiperazin-1-yl)-N-(3-(2,4-dioxotetrahydropyrimidin-1(2H)-yl)-1-methyl-1H-indazol-7-yl)acetamide hydrochloride]	≤ 2	* (0<Y≤20%)
C[C@@H]1CN(CCCO[C@H]2CC[C@H](N3C(=S)N(c4ccc(C#N)c(Cl)c4)C(=O)C3(C)C)CC2)C[C@H](C)N1CC(=O)Nc1cccc2c(N3CCC(=O)NC3=O)nn(C)c12 [Cmpd 9, 2-((2R,6S)-4-(3-((trans-4-(3-(3-Chloro-4-cyanophenyl)-5,5-dimethyl-4-oxo-2-thioxoimidazolidin-1-yl)cyclohexyl)oxy)propyl)-2,6-dimethylpiperazin-1-yl)-N-(3-(2,4-dioxotetrahydropyrimidin-1(2H)-yl)-1-methyl-1H-indazol-7-yl)acetamide hydrochloride]	≤ 2	* (0<Y≤20%)
C[C@@H]1CN(CCC[C@H]2CC[C@H](N3C(=S)N(c4cnc(C#N)c(C(F)(F)F)c4)C(=O)C3(C)C)CC2)C[C@H](C)N1CC(=O)Nc1cccc2c(N3CCC(=O)NC3=O)nn(C)c12 [Cmpd 10, 2-((2R,6S)-4-(3-(trans-4-(3-(6-Cyano-5-(trifluoromethyl)pyridin-3-yl)-5,5-dimethyl-4-oxo-2-thioxoimidazolidin-1-yl)cyclohexyl)propyl)-2,6-dimethylpiperazin-1-yl)-N-(3-(2,4-dioxotetrahydropyrimidin-1(2H)-yl)-1-methyl-1H-indazol-7-yl)acetamide hydrochloride]	2 to 10	* (0<Y≤20%)
C[C@@H]1CN(CCC[C@H]2CC[C@H](N3C(=S)N(c4ccc(C#N)c(Cl)c4)C(=O)C3(C)C)CC2)C[C@H](C)N1CC(=O)Nc1cccc2c(N3CCC(=O)NC3=O)nn(C)c12 [Cmpd 11, 2-((2S,6R)-4-(3-(trans-4-(3-(3-Chloro-4-cyanophenyl)-5,5-dimethyl-4-oxo-2-thioxoimidazolidin-1-yl)cyclohexyl)propyl)-2,6-dimethylpiperazin-1-yl)-N-(3-(2,4-dioxotetrahydropyrimidin-1(2H)-yl)-1-methyl-1H-indazol-7-yl)acetamide hydrochloride]	10 to 100	*** (30%<Y<60%)
